The values that follow come from paper PMC8036666, “Biological and Physico-Chemical Characteristics of Arginine-Rich Peptide Gemini Surfactants with Lysine and Cystine Spacers” (International Journal of Molecular Sciences, 2021).

Molecules are shown by their SMILES. Values after ≈ are worked out from the molar mass of the structure shown. Like-named read-outs stand apart in the source and are kept apart here. Marks after values point to notes of the source that are not given here. Where a SMILES comes first, the peptide text is derived from it. Bridges are numbered along the chain shown (N, C = ends). Roman numbers before positions name the chains, in order. The star is where a group is joined. Myristoyl = CCCCCCCCCCCCCC(=O)*; Lauroyl = CCCCCCCCCCCC(=O)*; Decanoyl = CCCCCCCCCC(=O)*; Octanoyl = CCCCCCCC(=O)*

The test system of one data set is C. albicans ATCC 10231. As to the method: (§1) The Acinetobacter baumannii ATCC BAA-1605, Enterococcus faecium ATCC 700221, Escherichia coli ML-35 ATCC 43827, Klebsiella aerogenes ATCC 13048, Klebsiella pneumoniae ATCC 700603, Pseudomonas aeruginosa ATCC 9027, Staphylococcus aureus ATCC 25923, Staphylococcus aureus ATCC 33591, Candida albicans ATCC 10231, Candida glabrata ATCC 15126, strains were acquired from the American Type Culture Collection (ATCC). All the strains were stored at −80 °C in Roti-Store cryo vials and before the tests were transferred into fresh Mueller–Hinton broth (MHB, Biocorp, Warsaw, Poland) for bacteria or RPMI-1640 (Sigma-Aldrich, Steinheim, Germany) for fungi and incubated for 24 h at 37 °C. Then, the cultures were seeded on the Mueller–Hinton agar (BioMaxima, Lublin, Poland) or Sabouraud dextrose agar (SDA, BioMaxima, Lublin, Poland) plates, respectively, and incubated as just mentioned. These agar cultures were used for further microbiological assays. Cell densities for all assays were adjusted spectrophotometrically (Multiskan GO Microplate Spectrophotometer, Thermo Fisher Scientific, Vantaa, Finland) at 600 and 530 nm for bacteria and fungi, respectively.
(§2) The MICs were determined by the broth microdilution method according to the Clinical and Laboratory Standard Institute guidelines. For this purpose, initial inoculums of bacteria (5 × 10^5 CFU/mL) in MHB and yeasts (2 × 10^3 CFU/mL) in RPMI-1640 with 2% D-glucose were exposed to the ranging concentration of lipopeptides (0.5–256 μg/mL) and incubated at 37 °C for 18 h and 24 h, respectively. The experiments were conducted on 96-well microtiter polystyrene plates (Kartell, Noviglio, Italy). The growth was assessed visually after incubation, and the MIC was assumed as the lowest peptide concentration at which a noticeable growth of microorganisms was inhibited. All experiments were conducted in triplicate.

The test system of data set [1] is C. glabrata ATCC 15126. As to the method:
as §1, §2

In data set [2] the test system is human red blood cells (hRBCs). The settings on record: cited from earlier work.
The test system of data set [3] is E. coli ML-35 (ATCC 43827).
Excerpt: (§3) The permeabilization of E. coli ML-35 (ATCC 43827) membranes was studied for selected compounds (A4, B2, C2, B7, and C7) to compare their activity and membrane disruption over time. […] For OM and IM permeabilization, CENTA and ONPG were used, respectively. The permeabilization of OM causes the release of periplasmic β-lactamase, which hydrolyzes CENTA’s β-lactam ring to form a chromophore, 2-nitro-5-thiobenzoate (TNB) anion, while the disruption of IM results in the release of β-galactosidase, which hydrolyzes ONPG into galactose and a chromophore, ortho-nitrophenol (ONP). Both products of enzymatic reaction absorb light at 405 nm.
as §2
Inner and outer membranes permeabilization kinetics were evaluated using Escherichia coli ML-35 (ATCC 43827) and chromogenic substrates—CENTA (BioVision, Milpitas, CA, USA) and o-nitrophenyl-β-d-galactopyranoside (ONPG) (Sigma-Aldrich, Steinheim, Germany), as described previously. To examine OM permeabilization, CENTA was used as a β-lactamase substrate. In effect of OM permeabilization, the enzyme can hydrolyze CENTA’s β-lactam ring. The resulting color change (2-nitro-5-thiobenzoate anion, TNB^-) could be measured spectrophotometrically at 405 nm. The IM permeabilization was monitored with ONPG, which is a chromogenic β-galactosidase substrate. The product of this reaction ([…]) was measured spectrophotometrically at 405 nm (Multiskan GO Microplate Spectrophotometer, Thermo Fisher Scientific, Vantaa, Finland). […] Bacteria were incubated in lysogeny broth medium (LB; Biocorp, Warszawa, Poland) for 24 h at 37 °C. Subsequently, the cells were diluted in a fresh LB medium and incubated at 37 °C up to a mid-log phase (ca. 3 h). The culture was centrifuged (3 min, 1100× g) and rinsed twice with a PBS. The bacteria were resuspended in PBS up to a concentration of 5 × 10^6 CFU/mL. The final concentration of ONPG and CENTA was 1.5 mM and 0.15 mM, respectively. The ONPG/CENTA in PBS (Sigma-Aldrich, Steinheim, Germany) was used as a negative control. […] Readings were taken every 15 min for 3 h at 37 °C [125, 142, 143, 144]. Experiments were performed in triplicate on 96-well flat bottom microtiter polystyrene plates.

The test system of data set [4] is E. coli ML-35 (ATCC 43827). As to the kind of experiment: Inner membrane (IM) permeabilization kinetics, ONPG. The settings on record: for ti (t2), incubation time at the intersection of two tangents, IM permeabilization: 32 µg/mL; for ti (t1), incubation time at the intersection of two tangents, IM permeabilization: 64 µg/mL. Format: cell-based, Escherichia coli.
Excerpt: as §3
Inner and outer membranes permeabilization kinetics were evaluated using Escherichia coli ML-35 (ATCC 43827) and chromogenic substrates—CENTA (BioVision, Milpitas, CA, USA) and o-nitrophenyl-β-d-galactopyranoside (ONPG) (Sigma-Aldrich, Steinheim, Germany), as described previously. To examine OM permeabilization, CENTA was used as a β-lactamase substrate. In effect of OM permeabilization, the enzyme can hydrolyze CENTA’s β-lactam ring.

The test system of data set [5] is C. glabrata ATCC 15126. Format: cell-based, Candida glabrata. The settings on record: human serum 10% (v/v). The procedure:
(§4) Minimal inhibitory concentrations of lipopeptides were determined in the presence of human serum to evaluate the effect of enzymatic degradation and protein binding of lipopeptides on antimicrobial activity. Serum concentrations were 1% and 10% (v/v). S. aureus (ATCC 33591), P. aeruginosa (ATCC 9027), and C. glabrata (ATCC 15126) were selected to this study.
as §2
(§5) The MICs were determined in the presence of normal human serum (NHS; Sigma-Aldrich, Human Serum, Normal) in concentrations of 1 and 10% (v/v). NHS was stored frozen at −20 °C and thawed just before use. Microorganisms were cultivated as described in 3.4.1. Serial dilutions of compounds, inoculum density, medium, and incubation conditions were prepared as described in Section 3.4.2. Stock solutions of test compounds were prepared in appropriate culture medium.

The test system of another data set is P. aeruginosa ATCC 9027. Type of data set: cell-based, Pseudomonas aeruginosa. The settings on record: human serum 10% (v/v). As to the method: as §4, §2, §5
The test system of a further data set is S. aureus ATCC 33591. Format: cell-based, Staphylococcus aureus. The settings on record: human serum 10% (v/v). As to the method:
as §4, §2, §5

Consider `CCCCCCCC(=O)N[C@@H](CCCNC(=N)N)C(=O)N[C@@H](CCCNC(=N)N)C(N)=O` [Compound A1, C8-RR-NH2] (Octanoyl-Arg-Arg-NH2), for which the “MIC C. albicans ATCC 10231” value in the data set on C. albicans ATCC 10231 (planktonic culture) is >256 (−/−) µg/mL. For the same molecule, the “MIC C. glabrata ATCC 15126” value with C. glabrata ATCC 15126 [1] (planktonic culture) is listed as >256 (−/−) µg/mL. In addition, the HC50 in data set [2] was >256 * µg/mL.

On to `CCCCCCCCCC(=O)N[C@@H](CCCNC(=N)N)C(=O)N[C@@H](CCCNC(=N)N)C(=O)N[C@@H](CSSC[C@H](NC(=O)[C@H](CCCNC(=N)N)NC(=O)[C@H](CCCNC(=N)N)NC(=O)CCCCCCCCC)C(N)=O)C(N)=O` [Compound C2] (I: Decanoyl-Arg-Arg-Cys-NH2 / II: Decanoyl-Arg-Arg-Cys-NH2; disulfide I:3-II:3), for which, in the data set on C. albicans ATCC 10231 (ATCC 10231, 24 h), the “MIC C. albicans ATCC 10231” value is on record as 4 µg/mL (≈ 3.41 µM). Further, the “MIC C. glabrata ATCC 15126” value against C. glabrata ATCC 15126 [1] (ATCC 15126, 24 h) was 8 µg/mL (≈ 6.83 µM). The “MIC E. coli ML-35 (ATCC 43827)” value in data set [3] is 32 mg/L (≈ 27.3 µM). Also, in data set [4], the “ti (t2), incubation time at the intersection of two tangents, IM permeabilization” value (shortened to “ti (t2), incubation time”) was 45.7 min and the “ti (t1), incubation time at the intersection of two tangents, IM permeabilization” value (“ti (t1), incubation time” below) was determined as 42.0 min.

As to `CCCCCCCCCCCC(=O)N[C@@H](CCCNC(=N)N)C(=O)N[C@@H](CCCNC(=N)N)C(N)=O` [Compound A3, C12-RR-NH2] (Lauroyl-Arg-Arg-NH2), the “MIC C. albicans ATCC 10231” value against C. albicans ATCC 10231 (ATCC 10231, 24 h) worked out at 64 µg/mL (≈ 125 µM). Moreover, the “MIC C. glabrata ATCC 15126” value with C. glabrata ATCC 15126 [1] (ATCC 15126, 24 h) turned out to be 128 µg/mL (≈ 250 µM). Further, the HC50 in data set [2] was >256 * µg/mL.

Take `CCCCCCC(CCCC)C(=O)N[C@@H](CCCNC(=N)N)C(=O)N[C@@H](CCCNC(=N)N)C(=O)N[C@@H](CSSC[C@H](NC(=O)[C@H](CCCNC(=N)N)NC(=O)[C@H](CCCNC(=N)N)NC(=O)C(CCCC)CCCCCC)C(N)=O)C(N)=O` (stereo partly drawn) [Compound C7]: the “MIC C. glabrata ATCC 15126” value in the data set with C. glabrata ATCC 15126 [5] was determined as 256 mg/L (≈ 209 µM); with C. glabrata ATCC 15126 [1] (ATCC 15126, 24 h), 16 µg/mL (≈ 13 µM). In the data set on P. aeruginosa ATCC 9027, the “MIC P. aeruginosa ATCC 9027” value was 256 mg/L (≈ 209 µM). For the same molecule, the “MIC S. aureus ATCC 33591” value against S. aureus ATCC 33591 worked out at 64 mg/L (≈ 52.1 µM). In addition, in the data set with C. albicans ATCC 10231 (ATCC 10231, 24 h), the “MIC C. albicans ATCC 10231” value was 16 µg/mL (≈ 13 µM). The “MIC E. coli ML-35 (ATCC 43827)” value in data set [3] turned out to be 64 mg/L (≈ 52.1 µM). Also, the “ti (t2), incubation time” value in data set [4] was 68.6 min. Moreover, the “ti (t1), incubation time” value in data set [4] is reported as 43.9 min.

Regarding `CCCCCCCCCCCCCC(=O)N[C@@H](CCCNC(=N)N)C(=O)N[C@@H](CCCNC(=N)N)C(N)=O` [Compound A4, C14-RR-NH2] (Myristoyl-Arg-Arg-NH2), the “MIC C. glabrata ATCC 15126” value with C. glabrata ATCC 15126 [5] was 256 mg/L (≈ 474 µM). The “MIC P. aeruginosa ATCC 9027” value against P. aeruginosa ATCC 9027 came to 256 mg/L (≈ 474 µM). Also, the “MIC S. aureus ATCC 33591” value in the data set on S. aureus ATCC 33591 is 64 mg/L (≈ 119 µM). Besides, the “MIC C. albicans ATCC 10231” value against C. albicans ATCC 10231 (ATCC 10231, 24 h) was 8 µg/mL (≈ 14.8 µM). Besides, in the data set on C. glabrata ATCC 15126 [1] (ATCC 15126, 24 h), the “MIC C. glabrata ATCC 15126” value is on record as 16 µg/mL (≈ 29.6 µM). Also, the “MIC E. coli ML-35 (ATCC 43827)” value in data set [3] turned out to be 32 mg/L (≈ 59.3 µM). Further, in data set [4], the “ti (t2), incubation time” value turned out to be 77.6 min and the “ti (t1), incubation time” value worked out at 39.0 min.

On to `CCCCCCC(CCCC)C(=O)N[C@@H](CCCNC(=N)N)C(=O)N[C@@H](CCCNC(=N)N)C(=O)NCCCC[C@H](NC(=O)[C@H](CCCNC(=N)N)NC(=O)[C@H](CCCNC(=N)N)NC(=O)C(CCCC)CCCCCC)C(N)=O` (stereo partly drawn) [Compound B7], for which the “MIC C. glabrata ATCC 15126” value was 64 mg/L (≈ 56.4 µM) against C. glabrata ATCC 15126 [5] and 16 µg/mL (≈ 14.1 µM) with C. glabrata ATCC 15126 [1] (ATCC 15126, 24 h). Moreover, the “MIC P. aeruginosa ATCC 9027” value in the data set with P. aeruginosa ATCC 9027 amounted to 128 mg/L (≈ 113 µM). Besides, the “MIC S. aureus ATCC 33591” value against S. aureus ATCC 33591 was found to be 8 mg/L (≈ 7.05 µM). Moreover, the “MIC C. albicans ATCC 10231” value against C. albicans ATCC 10231 (ATCC 10231, 24 h) came to 8 µg/mL (≈ 7.05 µM). Further, the “MIC E. coli ML-35 (ATCC 43827)” value in data set [3] is 32 mg/L (≈ 28.2 µM).

Take `CCCCCCCCCC(=O)N[C@@H](CCCNC(=N)N)C(=O)N[C@@H](CCCNC(=N)N)C(N)=O` [Compound A2, C10-RR-NH2] (Decanoyl-Arg-Arg-NH2): the “MIC C. albicans ATCC 10231” value with C. albicans ATCC 10231 (planktonic culture) is on record as >256 (−/−) µg/mL. In addition, in the data set with C. glabrata ATCC 15126 [1] (planktonic culture), the “MIC C. glabrata ATCC 15126” value is reported as >256 (−/−) µg/mL. For the same molecule, the HC50 in data set [2] is recorded as >256 * µg/mL.
